Patent publication US7897401B2, “Control of apoptosis by controlling the propensity of ceramide channel formation” (University of Maryland, College Park, priority 2005, dated 2011)

Key:
erythrocytes = experiment: Permeabilization of erythrocytes (osmolytes of varying molecular weight); type: cell-based
[1] = tested on: ceramide channels in the MOM of rat liver mitochondria; experiment: Complex IV accessibility assay (cytochrome c oxidation), isolated rat liver mitochondria; type: biochemical; conditions: radiolabeled ceramide, rat liver mitochondria, FIG. 12
Excerpt: The amount of ceramide that needs to be added to mitochondria to achieve permeabilization of the MOM to proteins is high compared to physiological levels. However, it is not the absolute ceramide concentration in solution that is important, but rather the concentration of ceramide in the membrane. In addition, only a small percentage of the ceramide added to the solution actually inserts into the membrane. This issue was directly addressed by using radiolabeled ceramide and simultaneously measuring how much ceramide inserts into rat liver mitochondria and how much permeabilization is achieved in the MOM by measuring the accessibility of exogenously added cytochrome c. […] Levels measured in mitochondria in the early stages of apoptosis are 4 pmoles per nmole. Thus, the results are well within the physiological range. Note that after correcting for the membrane partitioning, long and short-chain ceramide have equal potency as expected from the model of the ceramide channel.
The ability of the naturally-occurring C16-ceramide to form channels in the mitochondrial outer membranes of isolated yeast mitochondria was assessed via the complex IV accessibility assay. This assay measures the bidirectional flux of cytochrome c across the mitochondrial outer membrane (MOM) by monitoring its oxidation by complex IV of the mitochondrial inner membrane electron transport chain. The initial rate of cytochrome c oxidation when expressed as a percent of the rate measured in mitochondria with damaged outer membranes is a good measure of the permeability of the MOM to proapoptotic proteins. This method has an advantage over simply looking for the release of cytochrome c because both channel prevention and reversal by a potential inhibitor can be evaluated.
Thus, mitochondria are isolated from wild type yeast and yeast strains expressing either human Bcl-2 or Bcl-xL according to previously published methods (Lee, A. et al. (1998) “THE ROLE OF YEAST VDAC GENES ON THE PERMEABILITY OF THE MITOCHONDRIAL OUTER MEMBRANE,” J. Membr. Biol. 161:173-181). Isolated yeast mitochondria are incubated with the naturally occurring C16-ceramide and its ability to form channels is evaluated according to the complex IV accessibility assay (Siskind, L. J. et al. (2002) “CERAMIDE CHANNELS INCREASE THE PERMEABILITY OF THE MITOCHONDRIAL OUTER MEMBRANE To SMALL PROTEINS,” J. Biol. Chem. 277:26796-26803). This assay measures the CN-sensitive oxidation of exogenously-added reduced cytochrome c by cytochrome c oxidase of the inner membrane. […] Mitochondria are incubated with test agents (e.g., C16-ceramide) for a predetermined period of time (e.g., 5-20 minutes), reduced cytochrome c is added and the absorbance is monitored at 550 nm. […]

ceramide channels = experiment: Screening for influence on ceramide channel formation in liposomes or planar membranes; type: biochemical
Excerpt: In one embodiment, such methods comprise screening compounds for their ability to influence the formation of ceramide channels in liposomes or planar membranes. […] Such liposomes or planar membranes can be produced using any of a variety of lipids. Preferably, however, the constituents of the liposomes or planar membranes will be selected to mimic those of the MOM, or to have relevance to such membranes (see, Weissig, V. et al. (2006) “LIPOSOMES AND LIPOSOME-LIKE VESICLES FOR DRUG AND DNA DELIVERY TO MITOCHONDRIA,” J. Liposome Res. 16(3):249-264; Torchilin, V. P. (2006) “RECENT APPROACHES TO INTRACELLULAR DELIVERY OF DRUGS AND DNA AND ORGANELLE TARGETING,” Annu. Rev. Biomed. Eng. 8:343-375; Elrick, M. J. et al. (2006) “SPHINGOSINE, A PRODUCT OF CERAMIDE HYDROLYSIS, INFLUENCES THE FORMATION OF CERAMIDE CHANNELS,” Biophys. J. 1; 91(5):1749-1756; Bathori, G. et al. (2006) “CA2+-DEPENDENT CONTROL OF THE PERMEABILITY PROPERTIES OF THE MITOCHONDRIAL OUTER MEMBRANE AND VOLTAGE-DEPENDENT ANION-SELECTIVE CHANNEL (VDAC),” J. Biol. Chem. 281(25):17347-17358; Stiban, J. et al. (2006) “DIHYDROCERAMIDE HINDERS CERAMIDE CHANNEL FORMATION: IMPLICATIONS ON APOPIOSIS,” Apoptosis 11(5):773-780; Stover, T. C. et al. (2005) “SYSTEMIC DELIVERY OF LIPOSOMAL SHORT-CHAIN CERAMIDE LIMITS SOLID TUMOR GROWTH IN MURINE MODELS OF BREAST ADENOCARCINOMA,” Clin. Cancer Res. 11(9):3465-3474).

| Compound | ceramide:phospholipids ratio needed to permeabilize an erythrocyte membrane relative to MOM (erythrocytes) [fold] | ceramide inserted sufficient to permeabilize the outer membrane to cytochrome c [1] | concentration exhibiting potent inhibitory effects on ceramide channels (ceramide channels) [mM] |
| --- | --- | --- | --- |
| ceramide | 20 | 2 pmoles per nmole of phospholip | – |
| OC[C@H]1O[C@H](O[C@H]2O[C@H](CO)[C@@H](O)[C@H](O)[C@H]2O)[C@H](O)[C@@H](O)[C@@H]1O [trehalose] | – | – | 50 |
